# Measured values published in patent US8476036B2, “Nonluminogenic assay for living cells” (Promega Corporation, priority 2004, dated 2013).
# Where a name gives a salt, the structure may show the parent alone. Read-outs that look alike come from different tables or passages of the source. Square brackets hold non-standard residues; d marks the D form. Peptide text beside a SMILES is read from it. * marks the point of attachment. Sta = CC(C)C[C@H](N)[C@@H](O)CC(=O)O; AMC = Cc1cc(=O)oc2cc(N*)ccc12; Isovaleryl = CC(C)CC(=O)*
# What was measured:
# Type in all cases: cell-based
# HL-60 and/or U937 = test: Protease retention assay inhibitor/adjuncts survey with Gly-Phe-AFC; details: for Comments: no inhibition/no effect to (concentration): highest concentration without effect on retention activity
# Excerpt: (§1) Puromycin, E-64, Phenylmethanesulfonyl fluoride (PMSF), Adenosine 5′-triphosphate (ATP), N-(α-Rhamnopyranosyloxyhyrdoxyphosphinyl)-Leu-Trp disodium salt (Phosphoramidon), N-[(2S,3R)-3-Amino-2-hydroxy-4-phenylbutyryl-L-leucine hydrochloride (Bestatin), 1,10-Phenathroline, […], 4-(2-Aminoethyl)benzenesulfonyl fluoride (AEBSF), 1,4-Dithio-DL-threitol (DTT), Edetate disodium dihyrdrate (EDTA), Isovaleryl-L-valyl-L-valyl-[(3S,4S)-4-amino-3-hydroxy-6-methylheptanoyl]-L-alanyl[93S,4S]-4-amino-3-hydroxy-6-methylheptanoicacid (Pepstatin A), sodium chloride, Aprotinin, N-Acetyl-L-leucyl-L-leucyl-L-argininal hemisulfate salt (leupeptin) were all purchased from Sigma. Inhibitors were resuspended in DMSO to varying stock concentrations with a high target concentration of 200 μM or 200 μg/ml in Dulbecco's Phosphate Buffer Saline w/o Mg^++ or Ca^++ (DPBS) for addition to either lysates or viable cell populations. DTT, NaCl, EDTA, and ATP were also diluted in DPBS. All compounds were incubated with compromised or viable cells for a period of at least 30 minutes (most 60 minutes) at 37° C. prior to assessment of activity.
# (§2) The protease retention assay inhibitor/adjuncts survey was conducted on sonicated, saponin-lysed, or viable HL-60 and/or U937 using Gly-Phe-AFC at 100 μM final concentration as described previously. The protease release assay inhibitor/adjuncts survey was conducted on sonicated, saponin-lysed, or viable HL-60, SK-MEL-28, and/or U937 using Ala-Ala-Phe-AMC or (Ala-Ala-Phe)2-Rhodamine 110.
# HL-60, SK-MEL-28, U937 = test: Protease release assay inhibitor/adjuncts survey with Ala-Ala-Phe-AMC; details: for Comments: extent of the effect on release activity, in words
# Excerpt: as §1, §2
# HL-60 or Jurkat [1] = test: Protease release substrate selectivity, lysed (freeze fractured, sonicated, or detergent) cells; parameters: key: None denotes no statistical activity above control population.; (+) to (+++++) denotes the range of activity above control population from modest to robust; (+) to (+++++) denotes the range of activity above control population from modest to robust; (+) to (+++++) denotes the range of activity above control population from modest to robust; (+) to (+++++) denotes the range of activity above control population from modest to robust; (+) to (+++++) denotes the range of activity above control population from modest to robust; details: substrate cleavage activity above control in lysed cells; 15-30 minutes at 37° C.
# Excerpt: (§3) Ala-Ala-Phe-AMC was obtained from Promega. Z-Leu-Leu-Val-Tyr-aminoluciferin (LLVY corresponds to SEQ ID NO:18), Z-Leu-Arg-aminoluciferin, Z-Phe-Arg-aminoluciferin, Ala-Ala-Phe-aminoluciferin, (Ala-Ala-Phe)2-R110, and (Gly-Phe)2-R110 were synthesized by Promega Biosciences. Suc-Ala-Ala-Phe-AMC, H-Phe-AMC, H-Tyr-AMC, Glutyl-Ala-Ala-Phe-AMC (EMF corresponds to SEQ ID NO:32), H-Gly-Phe-AMC, Z-Gly-Ala-Met-AMC, Suc-Leu-Leu-Val-Tyr-AMC (LLVY corresponds to SEQ ID NO:18), D-Ala-Leu-Lys-AMC, H-Gly-Ala-AMC, H-Gly-Gly-AMC, Suc-Ala-Ala-Phe-AMC, Z-Arg-Leu-Arg-Gly-Gly-AMC (RLRGG corresponds to SEQ ID NO:29), Z-Leu-Arg-Gly-Gly-AMC (LRGG corresponds to SEQ ID NO:30) and Ac-Ala-Ala-Tyr-AMC were sourced from Bachem. Gly-Phe-AFC, Pro-Phe-Arg-AMC, Gly-Gly-Leu-AMC, and Ser-Tyr-AFC were obtained from Calbiochem. Z-Phe-Arg-AMC and Suc-Arg-Pro-Phe-His-Leu-Leu-Val-Tyr-AMC (RPHLLVY corresponds to SEQ ID NO:31) were purchased from Sigma.
# (§4) All substrates were solubilized in DMSO from 10 to 100 mM depending upon inherent solubility. Fluorescent substrates were diluted to 100 μM to 1 mM in 10 mM Hepes, pH 7.5 or matched cell culture medium with 10% serum and added in 1/10th volumes to lysed (freeze fractured, sonicated, or detergent) or untreated viable cells in white-walled, clear bottomed 96-well plates. HL-60 or Jurkat were used in the experimentation interchangeably because of their easily manipulated suspension phenotype. Plates were incubated for 15-30 minutes at 37° C. prior to measuring fluorescence by the CYTOFLUOR® II.
# (§5) Luminescent substrates were added to a luciferin detection cake (Promega V859A) resuspended in 2 ml 10 mM Hepes, pH 7.5 to 500 μM. ⅕^th volume of the proluminescent reaction mixes were added to lysed (freeze fractured, sonicated, or detergent) or untreated viable cells in white-walled, clear bottomed 96-well plates. Again, HL-60 or Jurkat were used in the experimentation interchangeably. Plates were incubated at 37° C. in a MeCour' circulating heat block controlled by a Caron 2050W exchange unit. Luminescence was measured between 15 and 30 minutes (signal steady state).
# (§6) A broad variety of proteolytic substrates were examined in an effort to characterize potential substrate preferences for protease release or retention in compromised or viable cells (see Table 4). […] Non-blocked substrates (H- and the like) were examined to include the contribution of aminopeptidase activities. From this panel, at least three proteolytic profiles emerged: an aminopeptidase-like activity preferring unblocked Ala-Ala-Phe tripeptide, a proteosomal (chymotrypsin-like) activity measured by release of blocked Leu-Leu-Val-Tyr (SEQ ID NO:18) peptides, and an exceedingly labile activity by Gly-Phe, Gly-Ala, Phe-, Tyr- or Gly-Gly-Leu substrates. The latter activities were only measurable in viable, intact cells. Of further significance is that several fluorophores or proluminescent labels can be used to detect these activities, ultimately allowing for enhanced downstream multiplexing flexibility.
# HL-60 or Jurkat [2] = test: Protease retention substrate selectivity, untreated viable cells; parameters: key: None denotes no statistical activity above control population.; (+) to (+++++) denotes the range of activity above control population from modest to robust; (+) to (+++++) denotes the range of activity above control population from modest to robust; (+) to (+++++) denotes the range of activity above control population from modest to robust; (+) to (+++++) denotes the range of activity above control population from modest to robust; (+) to (+++++) denotes the range of activity above control population from modest to robust; details: substrate cleavage activity above control in untreated viable cells; 15-30 minutes at 37° C.
# Excerpt: as §3, §4, §5, §6
# [3] = extent or nature of the effect on retention activity, in words
# [4] = on protease retention activity, Gly-Phe-AFC at 100 μM final, sonicated, saponin-lysed, or viable cells
# [5] = on protease release activity, Ala-Ala-Phe-AMC, sonicated, saponin-lysed, or viable cells
# [6] = highest concentration without inhibition of release activity
Molecule,Effect (HL-60 and/or U937; [4]),"Effect (HL-60, SK-MEL-28, U937; [5])","Comments: no inhibition to (concentration) (HL-60, SK-MEL-28, U937; [6])",further results
"O[C@@H](CS)[C@@H](O)CS (racemic) [DTT, 1,4-Dithio-DL-threitol]",Augments,Augments,–,"Protease retention activity profile in the presence of inhibitors or adjuncts (HL-60 and/or U937): independent; Comments (HL-60 and/or U937; [3]): Very slightly; Comments (HL-60, SK-MEL-28, U937): Modest"
"c1cnc2c(c1)ccc1cccnc12 [1,10 Phenanthroline, 1,10-Phenathroline]",No inhib,No inhib,to 100 uM,Comments: no inhibition/no effect to (concentration) (HL-60 and/or U937): to 100 uM
"O=c1oc(Cl)c(Cl)c2ccccc12 [3,4 Diisocoumarin, 3,4-diisocoumarin]",Inhibition(?),Inhibition,–,"Comments (HL-60 and/or U937; [3]): Kills cells; Comments (HL-60, SK-MEL-28, U937): Strong"
"CC(N)C(=O)NC(C)C(=O)NC(Cc1ccccc1)C(=O)Nc1ccc2c(c1)Oc1cc(NC(=O)C(Cc3ccccc3)NC(=O)C(C)NC(=O)C(C)N)ccc1C21OC(=O)c2ccccc21 (stereo not drawn) [(Ala-Ala-Phe) 2 R110, (Ala-Ala-Phe)2-R110]",–,–,–,Release (HL-60 or Jurkat [1]): +++++; Retention (HL-60 or Jurkat [2]): None
"NCCc1ccc(S(=O)(=O)F)cc1 [AEBSF, 4-(2-Aminoethyl)benzenesulfonyl fluoride]",–,Inhibition,–,"Comments (HL-60, SK-MEL-28, U937): Strong"
"Nc1ncnc2c1ncn2[C@@H]1O[C@H](COP(=O)(O)OP(=O)(O)OP(=O)(O)O)[C@@H](O)[C@H]1O [ATP, Adenosine 5′-triphosphate]",No effect,–,–,Protease retention activity profile in the presence of inhibitors or adjuncts (HL-60 and/or U937): independent; Comments: no inhibition/no effect to (concentration) (HL-60 and/or U937): to 100 uM
CC(=O)NC(C)C(=O)NC(C)C(=O)NC(Cc1ccc(O)cc1)C(=O)Nc1ccc2c(C)cc(=O)oc2c1 (stereo not drawn) [Ac-Ala-Ala-Tyr-AMC] (Ac-Ala-Ala-Tyr-{AMC}; configuration not given here),–,–,–,Release (HL-60 or Jurkat [1]): None; Retention (HL-60 or Jurkat [2]): None
Cc1cc(=O)oc2cc(NC(=O)C(Cc3ccccc3)NC(=O)C(C)NC(=O)C(C)N)ccc12 (stereo not drawn) [Ala-Ala-Phe-AMC] (H-Ala-Ala-Phe-{AMC}; configuration not given here),–,–,–,Release (HL-60 or Jurkat [1]): +++++; Retention (HL-60 or Jurkat [2]): None
"CC(C)C[C@H](NC(=O)[C@@H](O)[C@H](N)Cc1ccccc1)C(=O)O [Bestatin, N-[(2S,3R)-3-Amino-2-hydroxy-4-phenylbutyryl-L-leucine hydrochloride]",Inhibition,No inhib,to 10 uM,Protease retention activity profile in the presence of inhibitors or adjuncts (HL-60 and/or U937): sensitivities; Comments (HL-60 and/or U937; [3]): Strong
CC(C)C[C@H](NC(=O)[C@H]1O[C@@H]1C(=O)O)C(=O)NCCCCN=C(N)N [E-64],No inhib,No inhib,to 100 uM,Comments: no inhibition/no effect to (concentration) (HL-60 and/or U937): to 100 uM
"O.O.O=C([O-])CN(CCN(CC(=O)[O-])CC(=O)O)CC(=O)O.[Na+].[Na+] [EDTA, Edetate disodium dihyrdrate]",–,–,–,"Comments (HL-60 and/or U937): Also reduces; Effect (HL-60 and/or U937): Inhibition; Protease retention activity profile in the presence of inhibitors or adjuncts (HL-60 and/or U937): sensitivities; Comments: no inhibition to (concentration) (HL-60, SK-MEL-28, U937): to 50 mM; Effect (HL-60, SK-MEL-28, U937): No inhib"
NC(N)=NCCC[C@H](NC(=O)[C@@H]1CCCN1C(=O)[C@H](N)Cc1ccccc1)C(=O)CCl [FPR-CMK],–,Inhibition,–,"Comments (HL-60, SK-MEL-28, U937): Moderate"
"CC(=O)N[C@@H](CC(C)C)C(=O)N[C@@H](CC(C)C)C(=O)N[C@H](C=O)CCCNC(=N)N [Leupeptin, N-Acetyl-L-leucyl-L-leucyl-L-argininal hemisulfate salt]",–,No inhib,to 100 ug/ml,–
"[Cl-].[Na+] [NaCl, sodium chloride]",No inhib,–,–,Comments (HL-60 and/or U937; [3]): Insensitivity
"O=S(=O)(F)Cc1ccccc1 [PMSF, Phenylmethanesulfonyl fluoride]",No inhib,Inhibition,–,"Comments: no inhibition/no effect to (concentration) (HL-60 and/or U937): to 100 uM; Comments (HL-60, SK-MEL-28, U937): Strong"
"CC(C)CC(=O)N[C@H](C(=O)N[C@H](C(=O)N[C@@H](CC(C)C)[C@@H](O)CC(=O)N[C@@H](C)C(=O)N[C@@H](CC(C)C)[C@@H](O)CC(=O)O)C(C)C)C(C)C [Pepstatin, Isovaleryl-L-valyl-L-valyl-[(3S,4S)-4-amino-3-hydroxy-6-methylheptanoyl]-L-alanyl[93S,4S]-4-amino-3-hydroxy-6-methylheptanoicacid] (Isovaleryl-VV[Sta]A[Sta]-OH)",–,No inhib,to 100 uM,–
"CC(C)C[C@H](NP(=O)(O)O[C@@H]1O[C@@H](C)[C@H](O)[C@@H](O)[C@H]1O)C(=O)N[C@@H](Cc1c[nH]c2ccccc12)C(=O)O [Phosphoramidon, N-(α-Rhamnopyranosyloxyhyrdoxyphosphinyl)-Leu-Trp disodium salt]",No inhib,No inhib,to 100 uM,Comments: no inhibition/no effect to (concentration) (HL-60 and/or U937): to 100 uM
COc1ccc(C[C@H](N)C(=O)N[C@H]2[C@@H](O)[C@H](n3cnc4c(N(C)C)ncnc43)O[C@@H]2CO)cc1 [Puromycin],Inhibition,–,–,Protease retention activity profile in the presence of inhibitors or adjuncts (HL-60 and/or U937): sensitivities; Comments (HL-60 and/or U937; [3]): Very modest
Antitrypsin: Serine (trypsin-like) protease inhibitor in Table 6,–,No inhib,to 100 ug/ml,–
Aprotinin,–,No inhib,to 100 uM,–
